{"source": "patent US20220143184A1", "about": "“MITOCHONDRION/RIBONUCLEIC ACID-TARGETED AND MIGRATABLE PHOTOSENSITIZED PROBE AND APPLICATION THEREOF” (SHENZHEN INSTITUTES OF ADVANCED TECHNOLOGY, priority 2019, published 2022)", "key": {"[1]": {"system": "ribonucleic acid in the fixed cells", "test": "DNase and RNase digestion experiments in fixed HeLa cells (Example 4)", "format": "cell-based", "conditions": "50 μg/mL RNase 2 h, 10 μM probe 30 min", "protocol": "Preparation of fixed cells: firstly, the cover glasses (slides) covered with HeLa cells prepared in Example 2 were soaked in a 4% paraformaldehyde solution for 30 min, and then permeated with a 0.5% Triton X-100 at room temperature for 2 min to prepare fixed cells for staining.\nThree groups of the above fixed cells were taken, in which, two groups were added with a 2 U/mL RNase-free DNase and a 50 μg/mL DNase-free RNase for digestion in the incubator for 2 h individually.\nThe stained slides were observed under a wide-field fluorescence microscope to record the stained regions, fluorescence distribution, and intensity changes in the cells."}, "ribonucleic acid": {"system": "ribonucleic acid", "test": "Recognition of ribonucleic acid and deoxyribonucleic acid in solution, absorption/fluorescence spectra (Example 5)", "format": "binding", "conditions": "10 μM probe", "protocol": "A probe solution at concentration of 10 μM was mixed with a 120 μg/mL ribonucleic acid/deoxyribonucleic acid in PBS for 5 min, respectively, and then ultraviolet-visible absorption spectra and the fluorescence spectra under excitation at 488 nm were measured."}, "[2]": {"test": "Generation rate of all types of reactive oxygen species in aqueous solution, DCFH (Example 8, Experiment 1)", "format": "physicochemical", "conditions": "2 μM probe + 0.8 mM RNA, white light 300 mW/cm^2, 0-180 s", "protocol": "(§1) Different reactive oxygen indicators were added to the photosensitized probe aqueous solution, and the fluorescence or absorption spectra were measured. Four experiments were conducted as follows:\n10 μM 2′,7′-dichlorodihydrofluorescein (DCFH) was added to aqueous solutions of PBS, 2 μM photosensitized probe, 2 μM photosensitized probe of the application+0.8 mM RNA, and 2 μM Rose Bengal B (RB). These solutions were irradiated for 0-180 s with white light (300 mW/cm^2) of a xenon lamp with ultraviolet light filtered out, fluorescence spectra at 500-700 nm were measured under 488 nm excitation, and the fluorescence intensities at 529 nm were recorded to indicate the generation rate of all types of reactive oxygen species."}, "[3]": {"test": "Hydroxyl radical generation in aqueous solution, APF fluorescence (Example 8, Experiment 3)", "format": "physicochemical", "conditions": "10 μM APF, white light 300 mW/cm^2, 0-180 s", "protocol": "as §1\n10 μM APF was added to the aqueous solutions of PBS, 2 μM photosensitized probe, 2 μM photosensitized probe+0.8 mM RNA, 2 μM RB (a commercial singlet oxygen-generating photosensitizer). These solutions were irradiated for 0-180 s with the white light (300 mW/cm^2) of the xenon lamp, the fluorescence spectra at 500-700 nm were measured, and the fluorescence intensities at 514 nm were recorded to indicate the generation rate of hydroxyl radical."}, "HeLa cells [4]": {"system": "HeLa cells", "test": "Reactive oxygen species in HeLa cells before and after photodynamic therapy, DCFH-DA (Example 9)", "format": "cell-based", "conditions": "10 μM probe, 10 μM DCFH-DA, mercury lamp 510-560 nm, 3 min", "protocol": "The glass-bottom cell culture dishes covered with HeLa cells prepared in Example 2 were washed three times with PBS, then incubated with 10 μM DCFH-DA in a CO2 incubator in darkness for 30 min. […] The stained cells were observed under a confocal laser scanning microscope, and the fluorescence distribution and intensity changes in the cells before and after the photodynamic therapy (irradiated with mercury lamp at 510-560 nm) were recorded."}, "[5]": {"system": "mitochondria of HeLa cells", "test": "Colocalization with Mito-Tracker Green (MTG) in HeLa cells before and after photodynamic therapy (Example 10)", "format": "cell-based", "conditions": "10 μM probe, 1 μM MTG", "protocol": "The glass-bottom cell culture dishes covered with HeLa cells prepared in Example 2 were washed three times with PBS, then incubated with a 1 μM MTG in a CO2 incubator in darkness for 30 min. […] The stained cells were observed under a confocal laser scanning microscope, and fluorescence distribution and intensity changes in the cells before and after the photodynamic therapy (irradiated by mercury lamp at 510-560 nm) were recorded."}, "HeLa cells [6]": {"system": "HeLa cells", "test": "Mitochondrial membrane potential of HeLa cells, JC-10 (Example 11)", "format": "cell-based", "conditions": "10 μM probe, mercury lamp 510-560 nm", "protocol": "The cells were observed under a confocal laser scanning microscope, and the fluorescence distribution and intensity changes in the cells before and after photodynamic therapy (irradiated by mercury lamp at 510-560 nm) were recorded."}, "HeLa cells [7]": {"system": "HeLa cells", "test": "Cell morphology (DIC) of HeLa cells during photodynamic therapy (Example 12)", "format": "cell-based", "conditions": "10 μM probe, 510-560 nm, 3 min irradiation", "protocol": "The resulting stained cells and a control group without the photosensitized probe incubation were observed under a fluorescence microscope, and differential interference contrast images of the cells during the photodynamic therapy (irradiated with mercury lamp at 510-560 nm) were recorded."}, "HeLa cells [8]": {"system": "HeLa cells", "test": "Flow cytometry fluorescence intensity of HeLa cells before and after photodynamic therapy (Example 15)", "format": "cell-based", "conditions": "10 μM 30 min, xenon lamp white light 5 min", "protocol": "Three groups of HeLa cells prepared in Example 2 were washed three times with PBS. […] The three groups of cells were digested in darkness and dispersed in PBS, and the number of cells and their fluorescence intensities are recorded and analyzed by flow cytometry was."}, "HeLa cells [9]": {"system": "HeLa cells", "test": "Dark toxicity to HeLa cells, MTT method (Example 16)", "format": "cell-based", "conditions": "0-20 μM", "protocol": "The HeLa cells prepared in Example 2 were incubated in a 96-well plate with 1×10^4 cells per well. […] The cell viability was determined by the MTT method to determine the dark toxicity of the probe."}, "HeLa cells [10]": {"system": "HeLa cells", "test": "Photodynamic therapy efficiency to HeLa cells, MTT method (Example 16)", "format": "cell-based", "conditions": "5-20 μM, 30 min in darkness, xenon lamp white light 5 min"}, "[11]": {"system": "4T1 cell subcutaneous tumor", "procedure": "The 4T1 cells were cultured adherently in a culture medium containing a 10% fetal bovine serum, in a saturated humidity incubator with 5% CO2 at 37° C., and subcultured every 2-3 days. After the cells have grown to the logarithmic phase, the cells were subcutaneously inoculated into the right hind leg of a nude mouse: Specifically, the overgrown cells in the T25 cell culture flask were washed with 1 mL 0.25% trypsin, and then digested with another 1 mL 0.25% trypsin for 1 to 2 min. After adding the fresh medium, the cells were evenly pipetted, counted, centrifuged and washed with PBS three times, the cell density was controlled with the added amount of PBS to make a final concentration of cells to be 1×107 per milliliter. After that the cells were inoculated subcutaneously into the right hind leg of nude mice, each with approximately 1.2×10^6 cells. After the tumors grow for approximately a week, the mice were used for tumor photodynamic therapy and in vivo fluorescence imaging experiments.\nThe nude mouse tumor models prepared in Example 7 were divided into three groups for intratumor injection of drugs, with a dosage of 50 μL (1 mM) per tumor volume 100 mm^3.\nAfter the photodynamic therapy, the tumor tissues are sectioned and stained with TUNEL and HE, and the results are shown in FIG. 19."}, "[12]": {"conditions": "120 μg/mL RNA in PBS, 5 min, excitation 488 nm"}}, "data": [{"smiles": "COc1ccc2[nH]cc(/C=C/c3cc[n+](C)c4ccccc34)c2c1.[I-]", "note": "[photosensitized probe 1, (E)-4-(2-(5-methoxy-1H-indole-3-)vinyl)-1-methylquinolinium iodide]", "values": [{"measurement": "fluorescence of the cells treated with RNase versus control group", "setting": "[1]", "result": "much weaker than that of the control group"}, {"measurement": "fluorescence emission peak after interacting with ribonucleic acid", "setting": "ribonucleic acid; [12]", "result": "around 600 nm"}, {"measurement": "increase of fluorescence intensity in RNA solution compared with the probe itself", "setting": "ribonucleic acid; [12]", "result": "approximately 40 times"}, {"measurement": "fluorescence with RNA compared with deoxyribonucleic acid", "setting": "ribonucleic acid; 120 μg/mL RNA or DNA in PBS", "result": "significantly stronger than the fluorescence after binding with deoxyribonucleic acid"}, {"measurement": "rate of reactive oxygen species production (DCFH fluorescence at 529 nm) versus probe alone and RB", "setting": "[2]", "result": "significantly higher"}, {"measurement": "hydroxyl radicals generation (APF fluorescence at 514 nm)", "setting": "[3]; 2 μM probe + 0.8 mM RNA", "result": "more hydroxyl radicals are generated"}, {"measurement": "hydroxyl radicals generation (APF fluorescence at 514 nm)", "setting": "[3]; 2 μM probe alone", "result": "can effectively generate hydroxyl radicals"}, {"measurement": "intensity of green fluorescence of DCFH-DA (reactive oxygen species level in the cells) after irradiation", "setting": "HeLa cells [4]", "result": "increases remarkably"}, {"measurement": "location of the probe before photodynamic therapy", "setting": "[5]; darkness", "result": "located in the mitochondria"}, {"measurement": "location of the probe after photodynamic therapy", "setting": "[5]; mercury lamp 510-560 nm", "result": "migration of the photosensitized probe to the cytoplasm and nucleolus regions"}, {"measurement": "mitochondria membrane potential after photodynamic therapy (JC-10 aggregates fluorescence)", "setting": "HeLa cells [6]", "result": "significantly reduced"}, {"measurement": "cell morphology after light irradiation (symbol of cell apoptosis)", "setting": "HeLa cells [7]", "result": "many vesicles form near cell membrane"}, {"measurement": "fluorescence intensity of the cells after photodynamic therapy versus group without photodynamic therapy", "setting": "HeLa cells [8]", "result": "enhanced significantly"}, {"measurement": "dark toxicity", "setting": "HeLa cells [9]; 24 h", "result": "very low and negligible"}, {"measurement": "cell viability in darkness", "setting": "HeLa cells [9]; incubation 24 h, darkness", "result": "~100", "unit": "%"}, {"measurement": "cell viability after photodynamic therapy", "setting": "HeLa cells [10]", "result": "greatly reduced"}, {"measurement": "tumor growth (tumor volume)", "setting": "[11]; 1+Light, within 16 days of therapy", "result": "significantly inhibited"}, {"measurement": "fluorescence intensity of the tumor site with the progress of the photodynamic therapy", "setting": "[11]; intratumor injection 50 μL (1 mM) per 100 mm^3, 0-10 min during and 10-60 min after therapy", "result": "increases significantly"}, {"measurement": "fluorescence at the tumor site after the photodynamic therapy", "setting": "[11]; probe with light irradiation", "result": "bright fluorescence at the tumor site"}, {"measurement": "TUNEL staining of tumor tissue section", "setting": "[11]; probe with photodynamic therapy", "result": "died in the apoptosis pathway"}, {"measurement": "HE staining of tumor tissue section", "setting": "[11]; probe with photodynamic therapy (third group)", "result": "seriously damaged"}, {"measurement": "fluorescence at the tumor site without the photodynamic therapy", "setting": "[11]; probe, fed in darkness", "result": "weak fluorescence at the tumor site"}]}]}
